Data reported in PubChem BioAssay (NCI).
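Compound exposure: 48 hours, 5 concentrations, 96-well plates. At the GI50, growth is halved. TGI: concentration producing complete growth inhibition.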

Legend:
Assay in all cases: NCI anticancer screen, dose series, 48 h
ACHN renal = tested on: ACHN renal
HCT-15 colon = tested on: HCT-15 colon
HL-60(TB) leukemia = tested on: HL-60(TB) leukemia
LOX IMVI melanoma = tested on: LOX IMVI melanoma
NCI-H460 lung = tested on: NCI-H460 lung
NCI-H522 lung = tested on: NCI-H522 lung
PC-3 prostate = tested on: PC-3 prostate
RXF 393 renal = tested on: RXF 393 renal
TK-10 renal = tested on: TK-10 renal
UACC-257 melanoma = tested on: UACC-257 melanoma

Structure (SMILES)	TGI (ACHN renal)	TGI (HCT-15 colon)	TGI (HL-60(TB) leukemia)	TGI (LOX IMVI melanoma)	TGI (NCI-H460 lung)	TGI (NCI-H522 lung)	TGI (PC-3 prostate)	TGI (RXF 393 renal)	TGI (TK-10 renal)	TGI (UACC-257 melanoma)	GI50 (ACHN renal)	GI50 (HCT-15 colon)	GI50 (HL-60(TB) leukemia)	GI50 (LOX IMVI melanoma)	GI50 (NCI-H460 lung)	GI50 (NCI-H522 lung)	GI50 (PC-3 prostate)	GI50 (RXF 393 renal)	GI50 (TK-10 renal)	GI50 (UACC-257 melanoma)
Nc1nc2c(C(=O)NCc3cccs3)nnn2c2cccc(Cl)c12	> 100 µM	> 100 µM	> 100 µM	> 100 µM	> 100 µM	> 100 µM	> 100 µM	> 100 µM	> 100 µM	> 100 µM	–	–	–	–	–	–	–	–	–	–
O=C1/C(=C/c2ccc(F)cc2)CN(C(=O)CCN2CCC(=NO)CC2)C/C1=C\c1ccc(F)cc1	2.86 µM	2.6 µM	7.95 µM	0.922 µM	5.17 µM	3.53 µM	2.97 µM	3.18 µM	6.1 µM	7.05 µM	1.08 µM	0.691 µM	2.26 µM	0.409 µM	2.02 µM	1.24 µM	0.855 µM	1.64 µM	2.21 µM	2.4 µM
CCOC(=O)C(Cc1ccc(N(CCCl)CCCl)cc1)NC(=O)C(Cc1ccccc1)NC=O (configuration not stated)	0.105 µM	0.602 µM	0.279 µM	0.301 µM	0.604 µM	0.167 µM	0.406 µM	0.226 µM	0.275 µM	0.54 µM	–	–	–	–	–	–	–	–	–	–
COc1ccc(-c2ccc(/C=N/n3c(COc4ccccc4Cl)nn(CN4CCOCC4)c3=S)o2)c([N+](=O)[O-])c1	> 100 µM	> 100 µM	39 µM	–	49 µM	> 100 µM	61.4 µM	61.6 µM	47.9 µM	–	33.6 µM	28.2 µM	17 µM	–	19.8 µM	38.9 µM	20.7 µM	22.3 µM	14.9 µM	–
O=C(NNc1ccc(Cl)cc1)C1CCC(CNS(=O)(=O)c2ccccc2Cl)CC1 (configuration not stated)	66.1 µM	61.5 µM	> 100 µM	–	> 100 µM	75.1 µM	34.7 µM	65.7 µM	6.68 µM	59.7 µM	16.8 µM	5.68 µM	4.25 µM	–	14.3 µM	12.8 µM	3.69 µM	24.5 µM	0.453 µM	17.1 µM
Cn1cc(C2=C(c3c[nH]c4ccccc34)C(=O)NC2=O)c2ccccc21	> 25 µM	> 25 µM	6.35 µM	> 25 µM	> 25 µM	> 25 µM	> 25 µM	1.96 µM	> 25 µM	–	1.73 µM	1.12 µM	0.871 µM	1.3 µM	0.732 µM	2.11 µM	3.91 µM	0.198 µM	0.132 µM	–
CC(C)N(Cc1ccc(CN(C(=O)CCl)C(C)C)cc1)C(=O)CCl	3.74 µM	3.64 µM	4.96 µM	1.05 µM	4.74 µM	0.342 µM	5.48 µM	2.85 µM	6.64 µM	–	1.88 µM	1.38 µM	1.95 µM	0.29 µM	1.98 µM	0.156 µM	2.27 µM	1.33 µM	2.69 µM	–
COc1ccccc1S(=O)(=O)Nc1ccc2c3c(cc(CCC(=O)NCCCCNc4cccc5c4C(=O)N(C4CCC(=O)NC4=O)C5=O)cc13)C(=O)N2C (configuration not stated)	> 100 µM	–	–	> 100 µM	> 100 µM	> 100 µM	> 100 µM	4.5 µM	> 100 µM	> 100 µM	> 100 µM	–	0.0273 µM	3.47 µM	> 100 µM	4.22 µM	0.204 µM	0.862 µM	> 29.9 µM	> 100 µM
O=C1CSC(c2ccccc2Cl)N1c1nnc(Cn2cnnc2)o1 (configuration not stated)	48.6 µM	18.2 µM	8.67 µM	21 µM	43.8 µM	38 µM	> 100 µM	79.4 µM	81.9 µM	–	14.3 µM	4.47 µM	2.69 µM	7.43 µM	7.91 µM	10.4 µM	11.6 µM	24.3 µM	22.8 µM	–
O=[N+]([O-])c1ccc(Cl)c(CNc2ncnc3c2ncn3C2CCCCO2)c1 (configuration not stated)	> 100 µM	> 100 µM	73.2 µM	> 100 µM	52.2 µM	> 100 µM	> 100 µM	42.6 µM	> 100 µM	–	–	–	–	–	–	–	–	–	–	–
CC(=O)OC12C=C(C)C(C(C)C1)C1C(=O)N(CCN3CCCCC3)C(=O)C12 (configuration not stated)	> 50 µM	> 50 µM	> 50 µM	> 50 µM	–	> 50 µM	> 50 µM	> 50 µM	> 50 µM	> 50 µM	> 50 µM	> 50 µM	> 50 µM	> 50 µM	–	> 50 µM	> 50 µM	19.9 µM	> 50 µM	> 50 µM
